For 19 compounds, IC50 results are on record in ChEMBL document CHEMBL5604064, “ASAP - DENV-1 NS2B-NS3 protease fluorescence dose response” (2024).

In general, IC50 refers to the concentration needed to halve the response being measured. A lower IC50 goes with greater potency in that assay.

The assay has as its target T1, NS3 protease (dengue virus type 1, UniProt A0A0K0TQ28).
T1 sequence (A0A0K0TQ28 whole entry): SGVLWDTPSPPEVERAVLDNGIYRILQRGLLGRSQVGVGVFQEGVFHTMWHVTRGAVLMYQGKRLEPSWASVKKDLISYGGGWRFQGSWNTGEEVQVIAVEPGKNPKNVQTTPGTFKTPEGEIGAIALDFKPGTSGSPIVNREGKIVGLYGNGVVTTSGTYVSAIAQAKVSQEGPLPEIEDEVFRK
The experiment in a line: Functional biochemical assay to identify treatments for viral infectious disease that targets Dengue virus type 1 NS2B-NS3 protease. Utilizing a direct enzyme activity measurement method, reading the fluorescence intensity is used to characterize the relative potency of inhibitors as IC50. Further details: species or system Nauru/West Pac/1974.
With `NCCc1csc2cc(C(=O)Nc3cc([C@H]4CCOC4)ccn3)ccc12`, the IC50 was more than 99.5 µM. In the case of `O=C(Nc1ccc2c(c1)CNC2)c1ccc2[nH]cc(C3CCNCC3)c2c1` it was 31.2 µM; in that of `N#Cc1ccc(-c2nc3c(C(=O)Nc4ccc5c(c4)CNC5)cc(F)cc3[nH]2)cc1`, 1.68 µM; in that of `COc1cccc(-c2nc3c(C(=O)Nc4ccc5c(c4)CNC5)cc(F)cc3[nH]2)c1`, 5.41 µM. `CC(C)c1nnc(-c2nc3c(C(=O)Nc4ccc5c(c4)CNC5)cc(F)cc3[nH]2)s1` gave a 50% inhibitory concentration (IC50) of 21.8 µM. This IC50 lies about 4-fold higher than the previous one. In the case of `NCc1cccc(-c2csc3cc(C(=O)Nc4ccc5c(c4)CNC5)ccc23)c1` it was 29.9 µM; in that of `O=C(Nc1ccc2c(c1)CNC2)c1cc(F)cc2[nH]c(-c3cccc(F)c3)nc12`, 2.69 µM. Consider `Cc1cccc(-c2nc3c(C(=O)Nc4ccc5c(c4)CNC5)cc(F)cc3[nH]2)c1`, for which the IC50 is 5.92 µM. In the case of `Cc1ccccc1-c1nc2c(C(=O)Nc3ccc4c(c3)CNC4)cc(F)cc2[nH]1` it was 2.19 µM; in that of `O=C(Nc1ccc2c(c1)CNC2)c1ccc2c(C3=CCNCC3)csc2c1`, 56.3 µM; in that of `O=C(Nc1ccc2c(c1)CNC2)c1cc(F)cc2[nH]c(-c3ccccc3F)nc12`, 3.86 µM. In the case of `NCc1ccc(-c2csc3cc(C(=O)Nc4ccc5c(c4)CNC5)ccc23)cc1` it was 31.7 µM; in that of `NCc1csc2cc(C(=O)Nc3ccc4c(c3)CNC4)ccc12`, 9.99 µM; in that of `O=C(Nc1ccc2c(c1)CNC2)c1cccc2c(C3CNC3)n[nH]c12`, 92.9 µM.

`COc1cc(-c2cc(NC(=O)c3cc(F)cc4[nH]ncc34)cc3c2CNC3)ccn1`: the IC50 is 82.8 µM. The IC50 values of the last two compounds are within 1.5-fold of each other. As for `CC(C)(c1nc2c(C(=O)Nc3ccc4c(c3)CNC4)cc(F)cc2[nH]1)S(C)(=O)=O`, the figure is 16.1 µM. Compound `NCCc1csc2cc(C(=O)Nc3ccc4c(c3)CNC4)ccc12` showed an IC50 of more than 99.5 µM.

`O=C(Nc1cc2c(c(C3=CCS(=O)(=O)CC3)c1)CNC2)c1cc(F)cc2[nH]ncc12` gave a half-inhibitory concentration (IC50) of more than 99.5 µM. The compound `O=C(Nc1cc2c(c(C3=CCOCC3)c1)CNC2)c1cc(F)cc2[nH]ncc12` displayed a half-inhibitory concentration (IC50) of 39.9 µM.
